Patent US20230099822A1, “MR1 LIGANDS AND PHARMACEUTICAL COMPOSITIONS FOR IMMUNOMODULATION” (UNIVERSITÄT BASEL, priority 2020, published 2023)
Several values for one entry are separate records, joined by “and”; a condition that tells them apart may be missing. Identical values can stand only once. Entries after “also recorded” stand apart in the source; their conditions may differ. Each block holds one compound with its values, some of them ahead of it.

Assays:
[1] = tested on: MR1T cell clones AVA34, AC1A4 and MAIT clone MRC25; assay: MR1 tetramer staining of T cell clones; type: binding, human
Experimental: Correct protein conformation was confirmed by performing a plate-bound activation of the MR1T cell clone DGB129. Refolded MR1-compound protein was serially diluted in PBS (1.5-100 μg/mL) and added to a high-protein-binding plate (Nunc, Cat #439454) for 2 h at 37° C. The wells were washed thoroughly with PBS before addition of 5×10^4 cells that were left overnight at 37° C. IL-13 ELISA was then used as an activation readout. The functional monomer was then biotinylated using BirA-500 biotinylation kit (Avidity, Cat #Bulk BirA) overnight at 4° C. Excess biotin was removed using S75 10/30 (GE Healthcare, 29148721) gel filtration before tetramerization with phycoerythrin (PE) streptavidin (Prozyme, Cat #P JRS25) in a 4:1 molar ratio. As control MR1 tetramers, human MR1-5-OP-RU and human MR1-6-FP labelled with APC, PE or AlexaFluor488 were used (The MR1 tetramer technology was developed jointly by Dr. James McCluskey, Dr. Jamie Rossjohn, and Dr. David Fairlie, and the material was produced by the NIH Tetramer Core Facility as permitted to be distributed by the University of Melbourne). […]
Samples were acquired on LSR Fortessa flow cytometer with the FACS Diva software (Becton Dickinson). […] When PBMCs were analyzed, CD14^+ and CD19^+ cells were excluded by staining with fluorescent antibodies detected in the same channel as the Live/Dead staining. All data was analyzed using FlowJo (LLC).

MR1T cell clones [2] = assay: Activation assay with plate-bound soluble MR1; type: cell-based, human; details: IL-13 (FIG. 4)
Experimental: Recombinant human P2m-MR1-Fc was produced in CHO-K1 cells as previously described (Lepore et al., 2017) and 4 μg/mL were coated onto 96 wells plates (Nunc, Cat #439454) for 18 h at 4° C. Plate-bound MR1 was then washed twice with wash buffer (150 mM NaCl, 20 mM Tris and 2% Glycerol, pH 5.6) to remove bound antigens. Then, the synthetic antigens (M3ADE, OPdA, M1G and OPdC) were added at the indicated concentrations and incubated for 6 h at room temperature (RT). Unbound antigens were washed twice with PBS before the addition of excess PBS. In some experiments, bacteria-produced and refolded MR1-M3ADE protein was serially diluted in PBS and added to a high protein binding plate (Nunc, Cat #439454) for 2 h at 37° C. then washed twice and used in the stimulation assay. Indicated MR1T cell clones ([…]) were added and supernatants were collected after 18 h. Released cytokines were detected by ELISA. Recombinant human P2m-MR1-Fc was produced in CHO-K1 cells as previously described and 4 μg/mL were coated onto 96 wells plates. Antigens produced by CHO-K1 cells were removed by washing twice with wash buffer (150 mM NaCl, 20 mM Tris and 2% Glycerol, pH 5.6). […]
Correct protein conformation was confirmed by performing a plate-bound activation of the MR1T cell clone DGB129. […] IL-13 ELISA was then used as an activation readout. […]

MR1T cell clones [3] = assay: MR1T cell activation assay with treated and fixed A375-MR1 cells; type: cell-based, human; details: 6 h incubation before fixation; clones TC5A87 and DGB129 (FIG. 9C, D)
[4] = target: T1, MR1 surface expression on THP-1 MR1 cells (Homo sapiens, UniProt Q95460); assay: Cell surface MR1 modulation on APCs (flow cytometry, anti-MR1 mAb 26.5); type: cell-based
T1 construct: expressed in transfected cells; host or cells: THP-1 (ATCC TIB-202) stably expressing MR1 (THP1-MR1)
Experimental: […] […] For each condition, net MFI was calculated subtracting isotype MFI from anti-MR1 MFI and fold change of cells treated with synthetic molecules over cells treated with vehicle was calculated.

MR1T cell clones [5] = assay: MR1T cell activation assay with THP-1 cells incubated with compounds (cytokine ELISA); type: cell-based, human
Experimental: MR1T cells (5×10^4/well unless otherwise indicated) were co-cultured with the indicated APCs (10^5 cells per well unless otherwise indicated) for 18 h in 120 μL volume in triplicate.
When nucleobases, nucleosides or nucleotides (all 250 μM) and synthetic compounds M3ADE, OPdA, M1G or OPdC were used to stimulate T cells, the THP-1 cells (10^5/well) were cultured 2 h with the indicated molecules or medium only, prior to T-cell addition. When a single concentration of synthetic antigens was used, 100 μM OPdA, 100 μM OPdC and 13 μM M1G were used for all clones, while 100 μM M3ADE was used for all clones except DGB129, AC1A4, AC1B76 and AVA46 for which 1 μM was used.

[6] = tested on: tumor-infiltrating T cells from lung cancer biopsies; assay: Activation of MR1-M3ADE tetramer-sorted TIL lines; type: cell-based, human; details: A375-MR1 cells with or without M3ADE; TCR downregulation, IFN-γ
Experimental: Tissue biopsy samples derived from small cell lung tumors that were digested with media containing Accutase (Innovative Cell; Cat #AT-104), Collagenase IV 200 U/mL (Worthington; Cat #LS004189), DNAse I 0.5 mg/mL (Sigma-Aldrich Cat #D5025) and Hyaluronidase 50 mg/mL (Sigma; Cat #H6254) for 1 hour at 37° C. Digested material was passed through a […] cell strainer and erythrocytes were lysed before being frozen and stored in liquid nitrogen. After thawing, TILs were rested for 2 days prior to co-culture with A375-p2mKO-MR1 cells in a ratio of 1:1 and in the presence of 50 μM M3ADE. On day 5, human rIL-2 (5 U/mL) was added to the cultures for a further 5 days, and expansion in this manner was repeated 3 times. Cells were then stained with MR1-M3ADE tetramer, anti-CD3, anti-CD4 and anti-CD8 mAbs, and tetramer positive cells were sorted into a bulk line before functional experiments.
The inventors isolated TILs from non-small cell-lung-cancer biopsies from two patients and co-cultured them with A375-MR1 cells loaded with M3ADE, in order to expand MR1T cells. […] The inventors measured the extent of MR1T-cell activation via TCR downregulation, which occurred only in the presence of […] M3ADE-loaded A375-MR1 cells, and was prevented by anti-MR1 blocking mAbs (FIG. 14C, donor 840, and FIG. 14D, donor 895). […]

Compound: MR1-6-FP tetramers: control MR1 tetramer, human MR1-6-FP, produced by the NIH Tetramer Core Facility
tetramer staining of MR1T clone AVA34 [1]: not

Compound: MR1-M3ADE monomers: human recombinant soluble MR1 refolded in vitro in the presence of M3ADE
stimulation of clone DGB129 by refolded MR1-M3ADE monomers (MR1T cell clones [2]): stimulated

Compound: O=CC[C@@H](O)[C@H](O)[C@H](O)CO [deoxyglucose, 2-deoxy-D-Glucose]
MR1T-cell stimulatory capacity of pulsed and fixed A375-MR1 cells (MR1T cell clones [3]): abolished

MRI upregulation ([4]; THP-1 MR1 cells, 3 h at 37° C., 3 doses each): YES
Compound: O=CC1=COC2CC1C(C=O)=CN2c1ncnc2[nH]cnc12 (centres unmarked) [Cmpd 13, 8-(9H-purin-6-yl)-2-oxa-8-azabicyclo[3.3.1]nona-3,6-diene-4,6-dicarbaldehyde]
cell surface MR1 upregulation on APCs (in words) ([4]; pulsed APC / THP1-MR1 cells): most efficient in increasing MR1 surface expression | Reactive T cells isolated (MR1T cell clones [5]): YES | activation of MR1T clone AC1A4 by adduct (MR1T cell clones [5]): activated | potency among the synthesized adducts (MR1T cell clones [5]): highest potency | response to THP-1 cells when adduct added (MR1T cell clones [5]; M1G or M3ADE added to clones QY1A16 and QY1C3, respectively): significant decreased response | activation of MR1T clone AVA34 by compound (MR1T cell clones [5]; THP-1 / MR1+ APCs loaded with compound, listed as M3ADE): specifically activated; also recorded: reacted | number of MR1T clones significantly stimulated (MR1T cell clones [5]; fourteen randomly selected MR1T clones, THP-1 cells, IFN-γ (FIG. 12B), listed as M3ADE): six and 6/14 | IL-13 release by AVA34 cells (MR1T cell clones [5]; toward THP-1 cells in the presence of compound (FIG. 5b)): IL-13 release | reactivity of tetramer-positive TIL cells, donor 895 [6]: reacted only to M3ADE-loaded A375-MR1 cells | reactivity of tetramer-positive TIL cells, donor #840 [6]: irrespective of the presence of M3ADE
